In patent US6207677A, “Piperidine derivatives having anxiolytic effect” (H. Lundbeck A/S, priority 1991, dated 2001):

target: sigma receptors; test: Inhibition of 3H-DTG binding to sigma receptors in rat brain in vitro; conditions: 2 nM 3H-DTG, rat brain without cerebellum, 25° C., 20 min

| Compound | IC50 |
| --- | --- |
| Fc1ccc(-n2cc(CCCCN3CCC4(CC3)Cc3ccccc3CO4)c3ccccc32)cc1 [Compound 5b, 1,4-Dihydro-1'-[4-[1-(4-Fluorophenyl)-3-indolyl]-1-butyl]spiro[3H-2-benzopyran-3,4'-piperidine]] | 1.1 nM |
| CCCCCCCCCCCCCCCCCCN1CCC2(CC1)OCc1ccccc12 [Compound 4g, 1'-Octadecanyl-spiro[isobenzofuran-1(3H),4'-piperidine]] | 46 nM |
| Fc1ccc(C2CCN(CCCOc3nsc4ccccc34)CC2)cc1 [Compound 21, 3-[3-(4-(4-Fluorophenyl)-piperidin-1-yl)-1-propyloxy]-1,2-benzisothiazole] | 0.2 nM |
| 1'-[3-(2,3-Dihydro-5-fluoro-benzofuran-3-yl)-1-butyl]-spiro[isobenzofuran-1(3H),4'-piperidine] [Compound 11b] | 0.63 nM |
| c1ccc(Cn2cc(CCCCN3CCC4(CC3)OCc3ccccc34)c3ccccc32)cc1 [Compound 2hh, 1'-[4-(1-Benzyl-3-indolyl)-1-butyl]-spiro[isobenzofuran-1(3h),4'-piperidine]] | 0.02 nM |
| Fc1ccc(-n2cc(CCCCN3CCC4(CC3)COCc3ccccc34)c3ccccc32)cc1 [Compound 9a, 1'-[4-[1-(4-Fluorophenyl)-3-indolyl]-1-butyl]spiro[1H-2-benzopyran-4(3H), 4'-piperidine]] | 0.34 nM |
| c1cncc(-n2cc(CCCCN3CCC4(CC3)COCc3ccccc34)c3ccccc32)c1 [Compound 9k, 1'-[4-[1-(3-Pyridinyl)-3-indolyl]-1-butyl]spiro[1H-2-benzopyran-4(3H), 4'-piperidine]] | 0.92 nM |
| O=S(=O)(c1cccs1)n1cc(CCCCN2CCC3(CC2)OCc2ccc(F)cc23)c2ccccc21 [Compound 6c, 6-Fluoro-1'-(4-(1-(2-thienyl)sulfonyl-3-indolyl)-1-butyl)spiro[isobenzofuran-1(3H),4'-piperidine)] | < 0.1 nM |

test system: psychosis; test: not given; conditions: Snyder, Largent 1989; cited from earlier work

| Compound | clinical effect in psychosis |
| --- | --- |
| C[C@@H]1CN(CCCn2c3ccccc3c3ccccc32)C[C@H](C)N1 [rimcazole, reference compound] | clinically shows effects in the treatment of psychosis |
